# No end group written: not given here. *: point of attachment. Biotin = O=C1N[C@H]2[C@H](CS[C@H]2CCCCC(=O)*)N1; Ahx = NCCCCCC(=O)O
# How the values were obtained:
# Type in all cases: biochemical
# CDK4 and CDK6 = assay: CDK reactivity test 2 (Test Example 2), CDK4/6 reactivity; details: [(V2/V1)+(V4/V3)]/2; relative value when Comparative Polypeptide 2 is set as 1
# Protocol: (§1) In a tube, 15 μL of a CDK solution (composition: 10 μg/mL CDK/cyclin complex, 1% BSA, triethanolamine buffer solution (pH 7.5)) containing CDK1/cyclin A2, CDK2/cyclin E1, CDK4/cyclin D3 or CDK6/cyclin D3 (all manufactured by SignalChem) and 15 μL of a kinase reaction solution (composition: 4 μg/mL substrate peptide, 50 mM HEPES-NaOH buffer solution (pH 7.4), 15 mM MgCl2, 2 mM ATP-γS) containing Polypeptide 1, Comparative Polypeptide 1 or Comparative Polypeptide 2 as a substrate peptide were mixed, and the tube was incubated at 37° C. for 1 hour with stirring at 900 rpm using a constant temperature shaker. 21.4 μL of a fluorescent labeling reagent (composition: 180 μg/ml 5-(iodoacetamide)-FITC, 50 mM EDTA, 300 mM MOPS-NaOH, pH 7.4) was added to the tube and pipetted 5 times, then the tube was shielded from light and incubated at 37° C. for 10 minutes with stirring at 400 rpm using a constant temperature shaker. 100 μL of a fluorescent labeling reaction stop solution (composition: 30 mM N-acetyl-L-cysteine, 2 M MOPS-NaOH, pH 7.4) was added to the tube and pipetted 5 times. 30 μL (containing 0.15 μg of magnetic St-Ab beads) of a HISCL HBsAg R2 reagent (manufactured by Sysmex Corporation) was added to the tube, then the tube was shielded from light and incubated at 37° C. for about 10 minutes with stirring at 1600 rpm using a constant temperature shaker. The beads in the tube were precipitated using a magnet, and the supernatant was removed. Then, TBS-T was added, and the beads were washed at 37° C. for about 10 seconds with stirring at 1600 rpm. This washing step was performed three times in total. 100 μL of an ALP-labeled anti-FITC antibody solution (composition: 0.2 to 1 μg/mL ALP-labeled anti-FITC antibody (manufactured by Jackson ImmunoResearch Laboratories, Inc.), 100 mM MES, 150 mM NaCl, 1% BSA, pH 6.5) was added to the tube, then the tube was shielded from light and incubated at 37° C. for about 10 minutes with stirring at 1600 rpm using a constant temperature shaker. The beads in the tube were precipitated using a magnet, and the supernatant was removed. Then, TBS-T was added, and the beads were washed at 37° C. for about 10 seconds with stirring at 1600 rpm. This washing step was performed three times in total. 50 μL of a buffer solution containing Tris (manufactured by Sysmex Corporation, HISCL R4 reagent) was added to the tube and stirred at 2000 rpm at 37° C. for 10 seconds using a constant temperature shaker. 100 μL of a buffer solution (manufactured by Sysmex Corporation, HISCL R5 reagent) containing an ALP luminescent substrate (disodium 2-chloro-5-(4-methoxyspiro{1,2-dioxetane-3,2′-(5′-chloro)-tricyclo[3.3.1.1^3,7]decan}-4-yl)-1-phenyl phosphate) was added to the tube, then the tube was shielded from light and incubated at 37° C. for 4 minutes with stirring at 1600 rpm using a constant temperature shaker. The beads in the tube were precipitated using a magnet, and the supernatant was transferred to a black plate. Luminescence was detected with a luminometer, and the luminescence intensity was measured.
# Test Example 2 was carried out in the same manner as in Test Example 1 except that CDK4 or CDK6 was used as CDK and the polypeptides (Polypeptides 2 to 13) obtained in Production Example 2 or Comparative Polypeptide 2 was used as a substrate peptide. V1 to V4 below:
# V 1: luminescence intensity when using Comparative Polypeptide 2 and CDK4,
# V 2: luminescence intensity when using any of Polypeptides 2 to 17 and A to E, and CDK4,
# V 3: luminescence intensity when using Comparative Polypeptide 2 and CDK6, and
# V 4: luminescence intensity when using any of Polypeptides 2 to 17 and A to E, and CDK6
# were measured, and CDK4/6 reactivity was calculated based on the formula ([(V2/V1)+(V4/V3)]/2). CDK4/6 reactivity is a relative value when the CDK4/6 reactivity of Comparative Polypeptide 2 is set as 1. […]
# CDK4/cyclin D3 = target: T1, CDK4/cyclin D3 (Homo sapiens, UniProt P11802); assay: CDK reactivity test 1 (Test Example 1); details: 10 μg/mL CDK/cyclin complex, 4 μg/mL substrate peptide, ATP-γS, 37° C. 1 hour
# T1 construct: purchased SignalChem
# Protocol: (§2) The reactivity of the polypeptide obtained in Production Example 1 to CDK1, CDK2, CDK4 and CDK6 was examined. Specifically, it was performed as follows.
# as §1
# CDK6/cyclin D3 = target: T2, CDK6/cyclin D3 (Homo sapiens, UniProt Q00534); assay: CDK reactivity test 1 (Test Example 1); details: 10 μg/mL CDK/cyclin complex, 4 μg/mL substrate peptide, ATP-γS, 37° C. 1 hour
# T2 construct: purchased SignalChem
# Protocol: as §2, §1
# CDK2/cyclin E1 = target: T3, CDK2/cyclin E1 (Homo sapiens, UniProt P24941); assay: CDK reactivity test 1 (Test Example 1); details: 10 μg/mL CDK/cyclin complex, 4 μg/mL substrate peptide, ATP-γS, 37° C. 1 hour
# T3 construct: purchased SignalChem
# Protocol: as §2, §1
# CDK1/cyclin A2 = target: T4, CDK1/cyclin A2 (Homo sapiens, UniProt P06493); assay: CDK reactivity test 1 (Test Example 1); details: 10 μg/mL CDK/cyclin complex, 4 μg/mL substrate peptide, ATP-γS, 37° C. 1 hour
# T4 construct: purchased SignalChem
# Protocol: as §2, §1
# T4 sequence (P06493 whole entry): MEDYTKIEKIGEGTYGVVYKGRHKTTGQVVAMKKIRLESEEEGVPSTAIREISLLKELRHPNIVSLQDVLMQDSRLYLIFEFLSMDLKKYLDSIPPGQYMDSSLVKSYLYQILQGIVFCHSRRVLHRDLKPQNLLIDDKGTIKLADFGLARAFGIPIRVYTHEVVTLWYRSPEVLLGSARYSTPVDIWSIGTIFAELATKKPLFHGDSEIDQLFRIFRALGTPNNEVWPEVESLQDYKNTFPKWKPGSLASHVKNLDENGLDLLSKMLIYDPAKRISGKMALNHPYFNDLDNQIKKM
# T4 sequence (P20248 whole entry partner): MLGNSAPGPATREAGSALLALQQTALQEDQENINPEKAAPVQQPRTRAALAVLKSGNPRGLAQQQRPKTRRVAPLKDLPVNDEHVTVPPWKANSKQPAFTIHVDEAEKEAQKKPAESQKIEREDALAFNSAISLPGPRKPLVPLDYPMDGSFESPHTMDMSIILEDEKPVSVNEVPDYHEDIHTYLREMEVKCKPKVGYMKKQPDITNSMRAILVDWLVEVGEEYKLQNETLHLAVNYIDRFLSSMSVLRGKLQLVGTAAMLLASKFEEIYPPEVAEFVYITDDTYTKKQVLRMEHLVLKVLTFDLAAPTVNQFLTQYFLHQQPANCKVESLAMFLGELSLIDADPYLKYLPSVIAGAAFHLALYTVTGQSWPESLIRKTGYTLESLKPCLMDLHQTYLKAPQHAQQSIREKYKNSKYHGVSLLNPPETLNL
# T1 sequence (P11802 whole entry): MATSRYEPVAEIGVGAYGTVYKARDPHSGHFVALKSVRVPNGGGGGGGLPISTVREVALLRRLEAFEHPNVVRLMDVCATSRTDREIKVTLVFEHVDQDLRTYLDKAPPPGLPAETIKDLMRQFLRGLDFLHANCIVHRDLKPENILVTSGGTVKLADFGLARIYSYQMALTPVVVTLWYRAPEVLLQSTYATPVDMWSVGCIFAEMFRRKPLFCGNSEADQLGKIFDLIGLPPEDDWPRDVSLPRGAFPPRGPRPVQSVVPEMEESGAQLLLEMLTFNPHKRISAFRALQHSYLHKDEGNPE
# T1 sequence (P30281 whole entry partner): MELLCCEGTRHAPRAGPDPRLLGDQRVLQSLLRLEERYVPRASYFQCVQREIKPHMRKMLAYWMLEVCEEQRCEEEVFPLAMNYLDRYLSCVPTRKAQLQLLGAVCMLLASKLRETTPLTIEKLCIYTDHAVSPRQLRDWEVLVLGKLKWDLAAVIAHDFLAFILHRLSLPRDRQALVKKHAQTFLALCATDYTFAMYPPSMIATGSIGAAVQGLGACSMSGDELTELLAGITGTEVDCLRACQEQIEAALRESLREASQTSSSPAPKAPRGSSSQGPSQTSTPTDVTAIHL
# T2 sequence (Q00534 whole entry): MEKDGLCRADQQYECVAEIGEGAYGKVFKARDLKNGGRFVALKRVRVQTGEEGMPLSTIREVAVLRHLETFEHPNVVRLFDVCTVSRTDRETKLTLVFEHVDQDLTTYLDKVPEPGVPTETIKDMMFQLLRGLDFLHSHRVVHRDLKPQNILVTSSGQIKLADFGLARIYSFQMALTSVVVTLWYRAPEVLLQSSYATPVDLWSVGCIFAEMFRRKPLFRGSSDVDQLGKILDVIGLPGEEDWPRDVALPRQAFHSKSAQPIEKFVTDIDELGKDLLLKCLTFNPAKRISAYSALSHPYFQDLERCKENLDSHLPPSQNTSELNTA
# T2 sequence (P30281 whole entry partner): as the sequence (P30281 whole entry partner) above
Sequence,CDK4/6 Reactivity (CDK4 and CDK6),further results
"AMPWSPAPAARAGGG ({Biotin-Ahx}-AMPWSPAPAARAGGG) [Polypeptide F, mutant of Polypeptide 1, N-terminal biotin via aminohexane linker]",7,–
"AMPWSPNPWWRGGGG ({Biotin-Ahx}-AMPWSPNPWWRGGGG) [Polypeptide 2, mutant of Polypeptide 1, N-terminal biotin via aminohexane linker]",15,–
"GAPWSPNPWWRGGGG ({Biotin-Ahx}-GAPWSPNPWWRGGGG) [Polypeptide 3, mutant of Polypeptide 1, N-terminal biotin via aminohexane linker]",33,–
"GMAWSPNPWWRGGGG ({Biotin-Ahx}-GMAWSPNPWWRGGGG) [Polypeptide 4, mutant of Polypeptide 1, N-terminal biotin via aminohexane linker]",5,–
"GMFWSPNPWWRGGGG ({Biotin-Ahx}-GMFWSPNPWWRGGGG) [Polypeptide D, mutant of Polypeptide 1, N-terminal biotin via aminohexane linker]",5,–
"GMPASPNPWWRGGGG ({Biotin-Ahx}-GMPASPNPWWRGGGG) [Polypeptide 5, mutant of Polypeptide 1, N-terminal biotin via aminohexane linker]",1,–
"GMPFSPNPWWRGGGG ({Biotin-Ahx}-GMPFSPNPWWRGGGG) [Polypeptide 13, mutant of Polypeptide 1, N-terminal biotin via aminohexane linker]",5,–
"GMPWSANPWWRGGGG ({Biotin-Ahx}-GMPWSANPWWRGGGG) [Polypeptide 6, mutant of Polypeptide 1, N-terminal biotin via aminohexane linker]",1,–
"GMPWSFNPWWRGGGG ({Biotin-Ahx}-GMPWSFNPWWRGGGG) [Polypeptide 16, mutant of Polypeptide 1, N-terminal biotin via aminohexane linker]",2,–
"GMPWSPAPWWRGGGG ({Biotin-Ahx}-GMPWSPAPWWRGGGG) [Polypeptide 7, mutant of Polypeptide 1, N-terminal biotin via aminohexane linker]",8,–
"GMPWSPNAWWRGGGG ({Biotin-Ahx}-GMPWSPNAWWRGGGG) [Polypeptide 8, mutant of Polypeptide 1, N-terminal biotin via aminohexane linker]",7,–
"GMPWSPNPAWRGGGG ({Biotin-Ahx}-GMPWSPNPAWRGGGG) [Polypeptide 9, mutant of Polypeptide 1, N-terminal biotin via aminohexane linker]",7,–
"GMPWSPNPWARGGGG ({Biotin-Ahx}-GMPWSPNPWARGGGG) [Polypeptide 10, mutant of Polypeptide 1, N-terminal biotin via aminohexane linker]",15,–
"GMPWSPNPWWAGGGG ({Biotin-Ahx}-GMPWSPNPWWAGGGG) [Polypeptide 11, mutant of Polypeptide 1, N-terminal biotin via aminohexane linker]",3,–
"GMPWSPNPWWHGGGG ({Biotin-Ahx}-GMPWSPNPWWHGGGG) [Polypeptide A, mutant of Polypeptide 1, N-terminal biotin via aminohexane linker]",7,–
"GMPWSPNPWWKGGGG ({Biotin-Ahx}-GMPWSPNPWWKGGGG) [Polypeptide B, mutant of Polypeptide 1, N-terminal biotin via aminohexane linker]",5,–
"GMPWSPNPWWRAGGG ({Biotin-Ahx}-GMPWSPNPWWRAGGG) [Polypeptide 12, mutant of Polypeptide 1, N-terminal biotin via aminohexane linker]",6,–
"GMPWSPNPWWRGGGG ({Biotin-Ahx}-GMPWSPNPWWRGGGG) [Polypeptide 1, N-terminal residue biotin-modified via a linker (aminohexane)]",13,"Luminescence intensity (CDK4/cyclin D3): 101,127,359; Luminescence intensity (CDK6/cyclin D3): 122,281,045; Luminescence intensity (CDK2/cyclin E1): 99,167,362; Luminescence intensity (CDK1/cyclin A2): 93,190,919"
"GMPWSWNPWWRGGGG ({Biotin-Ahx}-GMPWSWNPWWRGGGG) [Polypeptide 15, mutant of Polypeptide 1, N-terminal biotin via aminohexane linker]",2,–
"GMPWSYNPWWRGGGG ({Biotin-Ahx}-GMPWSYNPWWRGGGG) [Polypeptide 17, mutant of Polypeptide 1, N-terminal biotin via aminohexane linker]",2,–
"GMPYSPNPWWRGGGG ({Biotin-Ahx}-GMPYSPNPWWRGGGG) [Polypeptide 14, mutant of Polypeptide 1, N-terminal biotin via aminohexane linker]",5,–
"GMWWSPNPWWRGGGG ({Biotin-Ahx}-GMWWSPNPWWRGGGG) [Polypeptide C, mutant of Polypeptide 1, N-terminal biotin via aminohexane linker]",5,–
"GMYWSPNPWWRGGGG ({Biotin-Ahx}-GMYWSPNPWWRGGGG) [Polypeptide E, mutant of Polypeptide 1, N-terminal biotin via aminohexane linker]",6,–
"PYKISEGLPTPTKMTPRSRI ({Biotin-Ahx}-PYKISEGLPTPTKMTPRSRI) [Comparative Polypeptide 1, partial peptide of Rb protein which is an in vivo substrate of CDK; N-terminal biotin via aminohexane linker]",–,"Luminescence intensity (CDK4/cyclin D3): 810,674; Luminescence intensity (CDK6/cyclin D3): 7,417,238; Luminescence intensity (CDK2/cyclin E1): 104,410,578; Luminescence intensity (CDK1/cyclin A2): 67,564,327"
"RRRFRPASPLRGPPK ({Biotin-Ahx}-RRRFRPASPLRGPPK) [Comparative Polypeptide 2, polypeptide known as a substrate of CDK4 and CDK6; N-terminal biotin via aminohexane linker]",–,"Luminescence intensity (CDK4/cyclin D3): 5,439,800; Luminescence intensity (CDK6/cyclin D3): 17,316,904; Luminescence intensity (CDK2/cyclin E1): 16,211,368; Luminescence intensity (CDK1/cyclin A2): 41,516,306"
